The term EC50 denotes the midpoint of the concentration-response curve.

The target of this assay is T1, HDAC6 (Homo sapiens, UniProt Q9UBN7).
T1 sequence (Q9UBN7 1-1215): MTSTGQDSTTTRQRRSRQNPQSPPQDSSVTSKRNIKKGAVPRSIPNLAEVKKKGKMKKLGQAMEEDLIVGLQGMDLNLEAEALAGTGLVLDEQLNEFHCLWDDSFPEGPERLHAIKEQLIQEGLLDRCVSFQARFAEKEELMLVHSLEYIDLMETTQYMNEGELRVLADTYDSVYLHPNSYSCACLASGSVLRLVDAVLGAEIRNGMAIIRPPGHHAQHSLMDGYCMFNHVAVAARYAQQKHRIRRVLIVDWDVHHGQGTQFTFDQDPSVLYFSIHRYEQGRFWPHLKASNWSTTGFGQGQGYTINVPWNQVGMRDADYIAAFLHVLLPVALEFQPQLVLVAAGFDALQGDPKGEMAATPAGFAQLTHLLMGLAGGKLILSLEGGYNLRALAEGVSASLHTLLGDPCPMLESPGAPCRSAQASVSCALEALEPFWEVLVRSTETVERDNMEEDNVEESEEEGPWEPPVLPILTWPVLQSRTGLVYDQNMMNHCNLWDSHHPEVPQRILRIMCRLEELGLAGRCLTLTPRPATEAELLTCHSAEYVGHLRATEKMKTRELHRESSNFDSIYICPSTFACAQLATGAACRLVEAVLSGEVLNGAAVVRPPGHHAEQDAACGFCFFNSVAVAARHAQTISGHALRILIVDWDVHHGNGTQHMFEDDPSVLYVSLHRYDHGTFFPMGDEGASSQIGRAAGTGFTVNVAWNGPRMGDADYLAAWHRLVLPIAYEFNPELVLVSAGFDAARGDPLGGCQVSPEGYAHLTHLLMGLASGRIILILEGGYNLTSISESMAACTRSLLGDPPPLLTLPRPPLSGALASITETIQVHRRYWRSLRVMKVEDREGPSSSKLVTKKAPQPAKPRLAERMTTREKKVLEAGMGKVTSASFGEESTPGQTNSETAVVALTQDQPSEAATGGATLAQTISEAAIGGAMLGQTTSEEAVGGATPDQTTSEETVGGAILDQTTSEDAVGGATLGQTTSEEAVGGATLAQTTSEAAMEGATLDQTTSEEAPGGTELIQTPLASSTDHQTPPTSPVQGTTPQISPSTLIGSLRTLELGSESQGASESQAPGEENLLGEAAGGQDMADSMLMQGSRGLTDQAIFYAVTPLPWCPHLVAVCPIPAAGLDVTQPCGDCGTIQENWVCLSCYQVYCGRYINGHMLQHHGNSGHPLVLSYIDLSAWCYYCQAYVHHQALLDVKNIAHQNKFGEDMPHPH
The assay is described as follows: HDAC-Glo assay. Further details: purchased BPS Bioscience 50006. As to conditions: for EC50: read-out: log EC50 from dose-dependent HDAC inhibition curves (converted). It is filed as biochemical. The procedure: To validate the inhibition of HDACs by LA and LM and elaborate on the structure-activity relationship (SAR) of enantiomers as well as oxidized versus reduced forms of the molecules, we performed enzyme activity assays for recombinant HDAC1,2,3,6,8 as well as FRET-based binding assay for recombinant HDAC10.
The experiments were performed according to ref. [48]. […] Drug dosing was performed with a D300e Digital Dispenser (Tecan). HDACs (7 ng/mL for HDAC1, 25 ng/mL for HDAC2, 200 ng/mL for HDAC3/Ncor2 complex, 100 ng/mL for HDAC6, 200 ng/mL for HDAC8) and inhibitors were incubated together at room temperature (RT) for 30 min. After the addition of the HDAC-Glo™ I/II reagent, plates were shaken (800 rpm orbital shaker, 30 s), centrifuged (300 g, 1 min), and incubated at RT for 30 min. Luminescence was detected with a CLARIOstar (BMG Labtech) plate reader.

Structures are written as SMILES. Values joined by “and” are separate entries in the source; they are usually repeats but may differ in a detail not shown here. Identical values can stand only once.

With `O=C(O)CCCCC1CCSS1` (racemic) [(R/S)-LA, (R/S)-lipoic acid], the EC50 is 1730 nM. Besides, for the setting “0.5 M TCEP, log10 M -3.30103, 3 technical replicates”, the “HDAC enzymatic activity (normalized luminescence)” value was 1.458 and 1.424 and 1.356. Moreover, the “HDAC enzymatic activity (normalized luminescence)” value (0.5 M TCEP, log10 M -3.82945, 3 technical replicates) is 2.832 and 2.728 and 2.83. For the same molecule, under “0.5 M TCEP, log10 M -4.35788, 3 technical replicates”, the “HDAC enzymatic activity (normalized luminescence)” value was 6.139 and 5.789 and 5.799. In addition, where the note is “0.5 M TCEP, log10 M -4.88629, 3 technical replicates”, the “HDAC enzymatic activity (normalized luminescence)” value is 13.455 and 13.5196 and 13.8559. For the same molecule, under “0.5 M TCEP, log10 M -5.41477, 3 technical replicates”, the “HDAC enzymatic activity (normalized luminescence)” value was 31.3499 and 32.1006 and 33.4073. Further, the “HDAC enzymatic activity (normalized luminescence)” value (0.5 M TCEP, log10 M -5.94309, 3 technical replicates) was 55.9078 and 57.6015 and 56.5157. The “HDAC enzymatic activity (normalized luminescence)” value (0.5 M TCEP, log10 M -6.47756, 3 technical replicates) is 76.0987 and 79.5289 and 82.7102. Further, the “HDAC enzymatic activity (normalized luminescence)” value (0.5 M TCEP, log10 M -6.87615, 3 technical replicates) was 85.7363 and 87.7513 and 88.064. In addition, the “HDAC enzymatic activity (normalized luminescence)” value (no TCEP, log10 M -3.30103, 3 technical replicates) is 23.0918 and 22.3431 and 22.7816. Further, the “HDAC enzymatic activity (normalized luminescence)” value (no TCEP, log10 M -3.82945, 3 technical replicates) was 56.1761 and 58.3464 and 57.3647. Under “no TCEP, log10 M -4.35788, 3 technical replicates”, the “HDAC enzymatic activity (normalized luminescence)” value was 82.4637 and 85.6042 and 82.8934. Also, the “HDAC enzymatic activity (normalized luminescence)” value (no TCEP, log10 M -4.88629, 3 technical replicates) was 93.4335 and 99.2455 and 95.9681. The “HDAC enzymatic activity (normalized luminescence)” value (no TCEP, log10 M -5.41477, 3 technical replicates) was 97.1057 and 101.846 and 99.5994. Also, where the note is “no TCEP, log10 M -5.94309, 3 technical replicates”, the “HDAC enzymatic activity (normalized luminescence)” value is 97.3023 and 99.1974 and 100.246. Also, the “HDAC enzymatic activity (normalized luminescence)” value (no TCEP, log10 M -6.47756, 3 technical replicates) was 99.4261 and 102.712 and 105.54. Besides, the “HDAC enzymatic activity (normalized luminescence)” value (no TCEP, log10 M -6.87615, 3 technical replicates) was 96.4036 and 90.044 and 88.9734. Moreover, the HDAC6 relative activity (sheet S2b, log conc -3.30103) was 1.144 and 1.081 and 1.088. Also, the HDAC6 relative activity (sheet S2b, log conc -3.82945) was 2.37 and 2.452 and 2.46. Under “sheet S2b, log conc -4.35788”, the HDAC6 relative activity was 4.674 and 4.632 and 4.542. The HDAC6 relative activity (sheet S2b, log conc -4.88629) is 10.1866 and 10.4131 and 10.6467. Further, the HDAC6 relative activity (sheet S2b, log conc -5.41477) is 23.025 and 23.2631 and 23.7333. For the setting “sheet S2b, log conc -5.94309”, the HDAC6 relative activity was 48.9979 and 48.9603 and 49.8705. Moreover, where the note is “sheet S2b, log conc -6.47756”, the HDAC6 relative activity is 72.291 and 73.4771 and 73.4953. Besides, the HDAC6 relative activity (sheet S2b, log conc -6.87615) is 86.8078 and 88.7475 and 90.3905. In addition, the HDAC6 relative activity (sheet S2d, log conc -3.30103) was 1.458 and 1.424 and 1.356. In addition, the HDAC6 relative activity (sheet S2d, log conc -3.82945) is 2.832 and 2.728 and 2.83. For the setting “sheet S2d, log conc -4.35788”, the HDAC6 relative activity is 6.139 and 5.789 and 5.799. The HDAC6 relative activity (sheet S2d, log conc -4.88629) was 13.455 and 13.5196 and 13.8559. Moreover, the HDAC6 relative activity (sheet S2d, log conc -5.41477) was 31.3499 and 32.1006 and 33.4073. Moreover, the HDAC6 relative activity (sheet S2d, log conc -5.94309) was 55.9078 and 57.6015 and 56.5157. Also, the HDAC6 relative activity (sheet S2d, log conc -6.47756) is 76.0987 and 79.5289 and 82.7102. The HDAC6 relative activity (sheet S2d, log conc -6.87615) is 85.7363 and 87.7513 and 88.064.
In the case of `NC(=O)CCCCC1CCSS1` (racemic) [(R/S)-LM, (R/S)-lipoamide], the EC50 is 931 nM. Besides, where the note is “sheet S2b, log conc -3.30103”, the HDAC6 relative activity is 75.3248 and 75.1005 and 70.3242. The HDAC6 relative activity (sheet S2b, log conc -3.82945) is 95.4583 and 94.7241 and 92.4168. Under “sheet S2b, log conc -4.35788”, the HDAC6 relative activity is 101.41 and 101.875 and 100.004. For the same molecule, under “sheet S2b, log conc -4.88629”, the HDAC6 relative activity was 103.293 and 100.632 and 100.653. Besides, under “sheet S2b, log conc -5.41477”, the HDAC6 relative activity was 102.294 and 103.492 and 99.8033. Moreover, the HDAC6 relative activity (sheet S2b, log conc -5.94309) is 101.321 and 102.657 and 100.612. The HDAC6 relative activity (sheet S2b, log conc -6.47756) was 107.714 and 104.061 and 103.825. For the same molecule, the HDAC6 relative activity (sheet S2b, log conc -6.87615) is 97.9564 and 94.6265 and 91.4846.

(Values after paper PMC10272112 (Nature Communications, 2023).)
